Measurements: patent US8779120B2, “Macrocyclic derivatives of glycolurils, and methods of preparing and using the same” (Masarykova Univerzita, priority 2009, dated 2014)

Key:
[1] = Solubility of anion free macrocycle in studied solvent systems; format: physicochemical; details: anion free form; chloroform, methanol, DMSO, acetonitrile, water or the mixtures of these solvents
Experimental: Dodecamethylbambus[6]uril-HI complex (0.5 g) was dissolved in the mixture of chloroform (50 ml) and methanol (50 ml). 30% H2O2 (0.25 ml) was added and the solution was stirred at room temperature for 24 h. The resulting white precipitate was collected by filtration and washed with equimolar mixture of chloroform and methanol. […] When tetrabutylammonium bearing bromide, iodide, and tetrafluoroborate anions is added to the suspension of obtained white powder in equimolar mixture of chloroform and methanol the immediate formation of transparent solution was observed. ^1H NMR spectra of the solutions correspond to the spectra of the complex between dodecamethylbambus[6]uril and corresponding anion.
Titanium dioxide powder (Aeroxide P25, typically 0.1 mg) was suspended in a solution of dodecamethylbambus[6]uril-HI complex (5.0 mM) in acetonitrile/water (1:1, 0.5 mL) in a standard quartz UV cuvette. The mixture was purged with oxygen for 5 min and irradiated at either wave lengths 254 or 366 nm. After 4 h white precipitated of anion free dodecamethylbambus[6]uril was obtained in 87% yield. […]

[2] = 1H NMR competition of dodecamethylbambus[6]uril-HCl complex with tetrabutylammonium bromide, association constant; format: binding; details: CD3OD:CDCl3=2:1, equimolar mixture, overall concentration 5 mM
Experimental: (§1) Equimolar mixture of dodecamethylbambus[6]uril-HCl complex and tetrabutylammonium bearing bromide, iodide, and tetrafluoroborate anions was dissolved in the mixture of CD3OD:CDCl3=2:1 to obtain solution in which overall concentration of dissolved solids was 5 mM. In all cases obtained ^1H NMR spectrum was identical with the spectrum of corresponding complex (see Example 20-22). As signals corresponding to dodecamethylbambus[6]uril-HCl complex were not observed the value of association constants for all complexes was calculated to be higher than 5×10^4 M^−1.

[3] = 1H NMR competition of dodecamethylbambus[6]uril-HCl complex with tetrabutylammonium tetrafluoroborate, association constant; format: binding; details: CD3OD:CDCl3=2:1, equimolar mixture, overall concentration 5 mM
Experimental: as §1

[4] = 1H NMR competition of dodecamethylbambus[6]uril-HCl complex with tetrabutylammonium iodide, association constant; format: binding; details: CD3OD:CDCl3=2:1, equimolar mixture, overall concentration 5 mM
Experimental: as §1

CN1C(=O)N(C)[C@@H]2[C@H]1N1CN3C(=O)N(CN4C(=O)N(CN5C(=O)N(CN6C(=O)N(CN7C(=O)N(CN2C1=O)[C@@H]1[C@H]7N(C)C(=O)N1C)[C@@H]1[C@H]6N(C)C(=O)N1C)[C@@H]1[C@H]5N(C)C(=O)N1C)[C@@H]1[C@H]4N(C)C(=O)N1C)[C@@H]1[C@H]3N(C)C(=O)N1C [dodecamethylbambus[6]uril, Dodecamethylbambus[6]uril]
solubility of the anion free powder [1]: does not dissolve
association constant of complex with bromide anion [2]: higher than 5×10^4 M^−1
association constant of complex with tetrafluoroborate anion [3]: higher than 5×10^4 M^−1
association constant of complex with iodide anion [4]: higher than 5×10^4 M^−1
